Assay results taken from the supplement of paper PMC10307832.

Experiments:
Assay in all cases: relative viability (nuclei count vs DMSO), 5 days (fraction); higher = more cells survive
[1] = compound: C1CNCCC1C2=CC(=NN2)C3=CC=NC=C3 + Nc1nc2[nH]cc(CCc3ccc(C(=O)N[C@@H](CCC(=O)O)C(=O)O)cc3)c2c(=O)[nH]1 [Pemetrexed] (partner 0.2 µM)
In short: (§1)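 After 5 days of treatment, lung cancer cells in 1536-well plates were fixed and stained in a single step (final 0.05% Triton X-100, 1% formaldehyde, 1 ug/ml Hoechst) and their nuclei counted on 4× images. Treatment had been applied by pin tool the day after seeding as one drug alone or as a fixed anchor-drug dose with five library-drug doses (not always all listed) in √10 steps. Relative viability is the nuclei count of treated wells divided by that of vehicle wells, and values are medians of duplicate plates.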

[2] = compound: C[C@@H](N)c1ccc(C(=O)Nc2ccnc3[nH]ccc23)cc1 + Nc1ncn([C@H]2C[C@H](O)[C@@H](CO)O2)c(=O)n1 [Decitabine] (partner 2 µM)
In short: as §1

[3] = compound: O[C@H]1CC[C@H](Nc2ncc3nc(Nc4c(F)cc(F)cc4F)n([C@H]4CCOC4)c3n2)CC1 [Tanzisertib] + CS(=O)(=O)CCNCc1ccc(-c2ccc3ncnc(Nc4ccc(OCc5cccc(F)c5)c(Cl)c4)c3c2)o1 [Lapatinib] (partner 2 µM)
In short: as §1

[4] = compound: O[C@H]1CC[C@H](Nc2ncc3nc(Nc4c(F)cc(F)cc4F)n([C@H]4CCOC4)c3n2)CC1 [Tanzisertib] + Cc1nc(NC(=O)N2CCC[C@H]2C(N)=O)sc1-c1ccnc(C(C)(C)C(F)(F)F)c1 [Alpelisib] (partner 2 µM)
In short: as §1

Q: Which results are given for UMC-11?
A: relative viability ([1]; first compound 0.08 µM): 0.653; relative viability ([1]; first compound 0.8 µM): 0.9; relative viability ([1]; first compound 2.53 µM): 0.874; relative viability ([1]; first compound 8 µM): 0.811; relative viability ([2]; first compound 0.1265 µM): 0.608; relative viability ([2]; first compound 0.4 µM): 0.604; relative viability ([2]; first compound 1.265 µM): 0.481; relative viability ([2]; first compound 4 µM): 0.324; relative viability ([3]; first compound 0.08 µM): 1.13; relative viability ([3]; first compound 0.253 µM): 0.974; relative viability ([3]; first compound 0.8 µM): 1.1; relative viability ([3]; first compound 2.53 µM): 0.89; relative viability ([3]; first compound 8 µM): 0.84; relative viability ([4]; first compound 0.08 µM): 0.835; relative viability ([4]; first compound 0.253 µM): 0.987; relative viability ([4]; first compound 0.8 µM): 0.999; relative viability ([4]; first compound 2.53 µM): 0.956; relative viability ([4]; first compound 8 µM): 1.13
